Reference: US20100160442A1, “FORMULATIONS FOR CANCER TREATMENT” (priority 2006, published 2010)
Values after ≈ are worked out from the molar mass of the structure shown. Values joined by “and” are separate entries in the source; they are usually repeats but may differ in a detail not shown here. Equal values may be shown once.

Experiment: Saturated solubility of BA in self emulsifying lipid (SELF) samples, UV 320 nm
Type: physicochemical
Experimental: Saturated Solubility Test for Liquid SELF Samples: 2 ml of each liquid SELF was measured into 8 ml screw cap glass bottle using a Finnpipette. Aliquots of 50 mg of the API were then added until the mixture appeared to be saturated. The mixtures were sonicated for 30 minutes, and then observed to see if saturation had been maintained. Aliquots of 25 mg of the API were further added to non-saturated samples while stirring; these were sonicated for a further 30 minutes. This process was repeated until saturation was attained and maintained after sonication.
The liquid samples were then placed in the Variomatic water bath at 25° C. and left to stir for two nights. Each of the SELF samples was purged with nitrogen gas after use to minimize oxidation.
The saturated liquid samples were centrifuged at a speed of 4000 rpm for 10 minutes at 25° C.
Saturated Solubility Test for Semi-Solid SELF Samples: Prior to dispensing, semi-solid lipids were melted in a dry oven at 60° C. The semi-solids were dispensed into screw cap bottles; aliquots of the API were added to attain and maintain saturation. The saturated semi-solids were left stirring at 60° C.
The following day the stirrer was switched off but heating was maintained at 60° C. for 1 hour. This was to allow the dispersed solid particles to sediment. 0.1 ml was taken from the top clear layer of each of the saturated semi-solid samples and diluted with acetonitrile.
UV Analysis: The saturated samples and the lipid vehicles were diluted with acetonitrile at the same ratio. The samples were diluted with acetonitrile to obtain an absorbance between 0.1 to 1. The absorbance of the diluted lipid vehicles were used as the baseline for the absorbance readings of the active sample. The diluted samples were scanned at a fixed wavelength of 320 nm. The concentration of the API was calculated using the E^11 value, derived from the API concentration in acetonitrile.
Saturated Solubility: Saturated solubility was carried out on the six SELF samples (Gattefosse) that were miscible with acetonitrile. These samples were stirred over two nights.
Saturated solubility of freshly prepared lipid samples: Saturated solubility was carried out on each of the freshly prepared semi-solid lipid samples as described above. The results in table 9-8 are based on equilibration of saturated samples over two nights.

Solubility Enhancement vs. water (SELF 27A): 1074 | Mean Conc. (SELF 27A (Gattefosse, semi-solid), after 2 nights): 215000 µg/mL | Mean Conc. (SELF 27A (Gattefosse, semi-solid), after 2 nights, listed as API): 214730 µg/mL | Solubility Enhancement vs. water (SELF 27B): 524 | Mean Conc. (SELF 27B (Gattefosse, semi-solid), after 2 nights): 105000 µg/mL | Solubility Enhancement vs. water (SELF 27D): 699 | Mean Conc. (SELF 27D (Gattefosse, liquid), after 2 nights): 140000 µg/mL | Solubility Enhancement vs. water (SELF 27E): 675 and 532 | Mean Conc. (SELF 27E (Gattefosse, liquid), after 2 nights): 107000 µg/mL | Solubility Enhancement vs. water (SELF 27F): 804 | Mean Conc. (SELF 27F (Gattefosse, liquid), after 2 nights): 161000 µg/mL | Solubility Enhancement vs. water (SELF 27G): 695 | Mean Conc. (SELF 27G (Gattefosse, semi-solid), after 2 nights): 139000 µg/mL | Mean Conc. (Water): 200 µg/mL | Mean Conc. (freshly prepared SELF F1, after 2 nights): 185000 µg/mL | Mean Conc. (freshly prepared SELF F1, after 2 nights, listed as API): 184760 µg/mL | Mean Conc. (freshly prepared SELF F3, after 2 nights): 87000 µg/mL | Mean Conc. (freshly prepared SELF F4, after 2 nights): 42000 µg/mL | Mean Conc. (freshly prepared SELF F5, after 2 nights): 75000 µg/mL | Mean Conc. (freshly prepared SELF F6, after 2 nights): 76000 µg/mL | Mean Conc. (freshly prepared SELF F7, after 2 nights): 135000 µg/mL | solubility (water, read-out: Mean Conc.): 200 µg/mL (≈ 685 µM)
Structure (SMILES): NC(=O)c1ccc(I)c([N+](=O)[O-])c1 [BA, 4-iodo-3-nitrobenzamide]
